The record followed here is ChEMBL document CHEMBL3425453, “Luciferin and derivatives as a DYRK selective scaffold for the design of protein kinase inhibitors” (Eur J Med Chem, 2015).

For this assay, the target named is Cyclin-dependent kinase 2 (Homo sapiens) (UniProt P24941).

On to `O=C(O)[C@H]1CSC(c2ccc3cc(O)ccc3n2)=N1`, for which the Tm came out at 43.4 °C.

On to `O=C(O)[C@H]1CSC(c2ccc3cccc(O)c3n2)=N1`, for which the Tm came out at 43.9 °C.
